This passage reports EC30 results from patent publication US10758534B2 (Vertex Pharmaceuticals Incorporated, priority 2014, dated 2020).

The target of the first experiment is T1, F508del (Homo sapiens, UniProt P13569, DEL508-508).
T1 construct: expressed in transfected cells
T1 sequence (P13569 with tags, fused parts or gaps DEL508-508): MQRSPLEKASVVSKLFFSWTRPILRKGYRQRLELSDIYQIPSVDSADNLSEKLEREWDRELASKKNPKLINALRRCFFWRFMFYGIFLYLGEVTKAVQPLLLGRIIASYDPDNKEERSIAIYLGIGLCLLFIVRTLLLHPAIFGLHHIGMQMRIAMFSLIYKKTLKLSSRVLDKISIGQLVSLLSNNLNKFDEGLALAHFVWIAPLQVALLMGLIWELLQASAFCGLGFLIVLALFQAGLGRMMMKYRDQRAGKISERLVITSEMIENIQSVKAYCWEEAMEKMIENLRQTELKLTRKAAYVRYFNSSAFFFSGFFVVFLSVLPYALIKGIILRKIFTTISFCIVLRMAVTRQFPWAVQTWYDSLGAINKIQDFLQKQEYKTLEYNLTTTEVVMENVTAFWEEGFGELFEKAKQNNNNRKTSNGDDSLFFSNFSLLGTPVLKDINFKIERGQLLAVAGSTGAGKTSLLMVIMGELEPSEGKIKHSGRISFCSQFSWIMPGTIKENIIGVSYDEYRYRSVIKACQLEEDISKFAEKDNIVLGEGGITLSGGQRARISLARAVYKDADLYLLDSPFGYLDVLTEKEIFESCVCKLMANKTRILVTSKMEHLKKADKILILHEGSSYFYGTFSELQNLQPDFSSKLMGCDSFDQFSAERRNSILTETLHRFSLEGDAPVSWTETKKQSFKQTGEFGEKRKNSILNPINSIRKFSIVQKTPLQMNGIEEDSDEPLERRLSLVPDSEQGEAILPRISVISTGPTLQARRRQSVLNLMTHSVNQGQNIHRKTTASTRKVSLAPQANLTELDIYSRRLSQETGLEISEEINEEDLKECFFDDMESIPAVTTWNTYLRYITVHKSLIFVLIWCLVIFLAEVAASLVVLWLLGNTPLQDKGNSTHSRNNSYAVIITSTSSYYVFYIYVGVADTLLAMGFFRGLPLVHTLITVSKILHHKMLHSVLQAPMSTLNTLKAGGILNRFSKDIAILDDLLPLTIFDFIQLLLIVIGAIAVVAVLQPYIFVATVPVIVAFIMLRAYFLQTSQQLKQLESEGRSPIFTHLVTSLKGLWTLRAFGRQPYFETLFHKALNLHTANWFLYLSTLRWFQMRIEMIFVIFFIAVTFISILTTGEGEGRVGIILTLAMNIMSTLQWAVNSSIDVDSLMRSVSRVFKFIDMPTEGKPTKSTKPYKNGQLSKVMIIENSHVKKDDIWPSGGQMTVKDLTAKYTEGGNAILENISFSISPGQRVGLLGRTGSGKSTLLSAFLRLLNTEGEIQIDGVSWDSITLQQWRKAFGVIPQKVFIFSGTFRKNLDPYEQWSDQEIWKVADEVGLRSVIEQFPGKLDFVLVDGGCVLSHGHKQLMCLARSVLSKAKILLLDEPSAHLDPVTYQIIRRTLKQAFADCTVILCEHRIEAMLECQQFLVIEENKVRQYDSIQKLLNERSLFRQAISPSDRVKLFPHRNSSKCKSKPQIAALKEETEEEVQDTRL
The experiment in a line: Protocol 2: FRET membrane potential optical assay (VIPR), identification of correction compounds. The experiment is classed as cell-based. As to conditions: F508del CFTR modulator activity; compounds of Table 1; read-out: EC30. The procedure, abridged:
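Corrector readout: membrane-potential FRET (CC2-DMPE donor, DiSBAC2(3) acceptor) on VIPR II after Cl⁻-free gluconate bath with 10 μM forskolin and 20 μM genistein. Before this, F508del-expressing NIH3T3 cells were exposed to test compound for 16 h at 37 °C without serum; 27 °C incubation served as temperature-correction control.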
The EC30 is the point of the concentration-response curve where the effect stands at 30%. `Cc1nc2cc(Nc3cccc(S(=O)(=O)NC(=O)c4cccnc4N4CC(C)CC4(C)C)n3)ccc2s1` (centres unmarked) [Compound 2198, N—[[6-[(2-methyl-1,3-benzothiazol-5-yl)amino]-2-pyridyl]sulfonyl]-2-(2,2,4-trimethylpyrrolidin-1-yl)pyridine-3-carboxamide]: the EC30 is < 3000 nM.
The same measure, in the same setting: the result for `CC(C)COc1cc(F)cc(-c2ccc(C(=O)NS(=O)(=O)N3CCC(N)C3)c(N3CCCC3c3ccccc3)n2)c1` (single isomer, unassigned) [Compound 2477] reads < 3000 nM; that for `C#CCCC(=O)Nc1cccc(S(=O)(=O)NC(=O)c2ccc(-c3ccc(Cl)c(OCCC)c3)nc2N2[C@H](C)CC[C@@H]2C)n1` [Compound 2540, 6-(4-chloro-3-propoxy-phenyl)-2-[(2R,5S)-2,5-dimethylpyrrolidin-1-yl]-N-[[6-(pent-4-ynoylamino)-2-pyridyl]sulfonyl]pyridine-3-carboxamide], < 3000 nM; that for `CC1CN(c2ncccc2C(=O)NS(=O)(=O)c2cccc(Nc3cccc(C#N)c3)n2)C(C)(C)C1` (centres unmarked) [Compound 2484, N—[[6-(3-cyanoanilino)-2-pyridyl]sulfonyl]-2-(2,2,4-trimethylpyrrolidin-1-yl)pyridine-3-carboxamide], < 3000 nM.
The same measure, in the same setting: the result for `COc1cccc(-c2ccc(C(=O)NS(=O)(=O)c3ccccc3)c(N3C[C@@H](C)CC3(C)C)n2)n1` [Compound 2411, N-(benzenesulfonyl)-6-(6-methoxy-2-pyridyl)-2-[(4S)-2,2,4-trimethylpyrrolidin-1-yl]pyridine-3-carboxamide] reads < 3000 nM.
Still for that read-out and setting: for `COC(=O)C1CCN(c2cccc(S(=O)(=O)NC(=O)c3cccnc3N3CC(C)CC3(C)C)n2)CC1` (centres unmarked) [Compound 2442, methyl 1-[6-[[2-(2,2,4-trimethylpyrrolidin-1-yl)pyridine-3-carbonyl]sulfamoyl]-2-pyridyl]piperidine-4-carboxylate] the value was 3000 to 10000 nM; for `CC1CN(c2ncccc2C(=O)NS(=O)(=O)c2cccc(N[C@H](C)C3CCCCC3)n2)C(C)(C)C1` (stereo partly drawn) [Compound 1996, N—[[6-[[(1R)-1-cyclohexylethyl]amino]-2-pyridyl]sulfonyl]-2-(2,2,4-trimethylpyrrolidin-1-yl)pyridine-3-carboxamide], < 3000 nM; for `CC1CC=C(c2cnc(N3CC(C)CC3(C)C)c(C(=O)NS(=O)(=O)c3cccc(N)n3)c2)CC1` (centres unmarked) [Compound 2361, N-[(6-amino-2-pyridyl)sulfonyl]-5-(4-methylcyclohexen-1-yl)-2-(2,2,4-trimethylpyrrolidin-1-yl)pyridine-3-carboxamide], < 3000 nM.
As for `CC(C)COc1cc(F)cc(-c2ccc(C(=O)NS(=O)(=O)N3CC(N)CC(F)(F)C3)c(N3C[C@@H](C)CC3(C)C)n2)c1` (stereo partly drawn) [Compound 2209, N-[(5-amino-3,3-difluoro-1-piperidyl)sulfonyl]-6-(3-fluoro-5-isobutoxy-phenyl)-2-[(4S)-2,2,4-trimethylpyrrolidin-1-yl]pyridine-3-carboxamide], the EC30 was < 3000 nM.
Still for that read-out and setting: the result for `CCOc1cc(C)cc(-c2ccc(C(=O)NS(=O)(=O)c3cccnc3N)c(N3C[C@@H](C)CC3(C)C)n2)c1` [Compound 2241, N-[(2-amino-3-pyridyl)sulfonyl]-6-(3-ethoxy-5-methyl-phenyl)-2-[(4S)-2,2,4-trimethylpyrrolidin-1-yl]pyridine-3-carboxamide] reads < 3000 nM; that for `COc1cc(Cl)cc(-c2cnc(N3CC(C)CC3(C)C)c(C(=O)NS(=O)(=O)c3cccc(N)n3)c2)c1` (centres unmarked) [Compound 2545, N-[(6-amino-2-pyridyl)sulfonyl]-5-(3-chloro-5-methoxy-phenyl)-2-(2,2,4-trimethylpyrrolidin-1-yl)pyridine-3-carboxamide], < 3000 nM; that for `C[C@@H]1CN(c2nc(-c3ccccc3OC(F)(F)F)ccc2C(=O)NS(=O)(=O)c2cccnc2N)C(C)(C)C1` [Compound 2539, N-[(2-amino-3-pyridyl)sulfonyl]-6-[12-(trifluoromethoxy)phenyl]-2-[(4S)-2,2,4-trimethylpyrrolidin-1-yl]pyridine-3-carboxamide], < 3000 nM.
With `Cc1cn(-c2ccc(C(=O)NS(=O)(=O)c3cccnc3N)c(N3C[C@@H](C)CC3(C)C)n2)nc1OCC(C)(C)C` [Compound 2694], the EC30 is < 3000 nM.
Same read-out and setting: the result for `C[C@@H]1CN(c2nc(C(C)(C)C)c([C@@H](O)[C@H](O)C3CCCC3)cc2C(=O)NS(=O)(=O)c2cccc(N)n2)C(C)(C)C1` (single isomer, unassigned) [Compound 2069] reads < 3000 nM; that for `CC1CN(c2ncccc2C(=O)NS(=O)(=O)c2cccc(NCc3ccc(C(C)C)cc3)n2)C(C)(C)C1` (centres unmarked) [Compound 2187, N—[[6-[(4-isopropylphenyl)methylamino]-2-pyridyl]sulfonyl]-2-(2,2,4-trimethylpyrrolidin-1-yl)pyridine-3-carboxamide], < 3000 nM.
Turning to `CC1CN(c2ncccc2C(=O)NS(=O)(=O)c2cccc(OCCC3CCNCC3)n2)C(C)(C)C1` (centres unmarked) [Compound 2452, N—[[6-[2-(4-piperidyl)ethoxy]-2-pyridyl]sulfonyl]-2-(2,2,4-trimethylpyrrolidin-1-yl)pyridine-3-carboxamide], the EC30 was < 3000 nM.
Take `COc1ncccc1-c1ccc(C(=O)NS(=O)(=O)c2ccc[nH]c2=O)c(N2C[C@@H](C)CC2(C)C)n1` [Compound 2454, 6-(2-methoxy-3-pyridyl)-N-[(2-oxo-1H-pyridin-3-yl)sulfonyl]-2-[(4S)-2,2,4-trimethylpyrrolidin-1-yl]pyridine-3-carboxamide]: the EC30 lay within 3000 to 10000 nM.

Still in this experiment, the particulars now being: Table 3; compounds of Table 1 as modulators of CFTR activity; protocol not stated.
`Cc1cc(C)c(Oc2nc(-c3cccc(C)c3O)ccc2C(=O)NS(=O)(=O)c2cccc(N)n2)c(C)c1` [Compound 450, N-[(6-amino-2-pyridyl)sulfonyl]-6-(2-hydroxy-3-methyl-phenyl)-2-(2,4,6-trimethylphenoxy)pyridine-3-carboxamide]: the concentration for an effect of 30% (EC30) result is on record as “+++ (“+++” means <3 uM)”.
Same read-out and setting: the result for `Cc1cccc(C)c1CN1Cc2ccccc2C1(C)C(=O)NS(=O)(=O)c1cccc(N)n1` (centres unmarked) [Compound 790, N-[(6-amino-2-pyridyl)sulfonyl]-2-[(2,6-dimethylphenyl)methyl]-1-methyl-isoindoline-1-carboxamide] reads “+++ (“+++” means <3 uM)”; that for `CC(C)COc1cc(F)cc(-c2ccc(C(=O)NS(=O)(=O)c3ccc[nH]c3=O)c(N3C[C@@H](C)CC3(C)C)n2)c1` [Compound 492, 6-(3-fluoro-5-isobutoxy-phenyl)-N-[(2-oxo-1H-pyridin-3-yl)sulfonyl]-2-[(4S)-2,2,4-trimethylpyrrolidin-1-yl]pyridine-3-carboxamide], “+++ (“+++” means <3 uM)”; that for `COc1cc(-c2ccc(C(=O)NS(=O)(=O)c3ccc[nH]c3=O)c(Oc3c(C)cc(C)cc3C)n2)ccc1F` [Compound 624, 6-(4-fluoro-3-methoxy-phenyl)-N-[(2-oxo-1H-pyridin-3-yl)sulfonyl]-2-(2,4,6-trimethylphenoxy)pyridine-3-carboxamide], “++ (“++” means between 3 uM and 10 uM)”.
The same measure, in the same setting: the result for `CNc1cccc(S(=O)(=O)NC(=O)c2cc(C(C)(C)C)nn2Cc2c(C)cc(C)cc2C)c1` [Compound 249, 5-tert-butyl-N-[3-(methylamino)phenyl]sulfonyl-2-[(2,4,6-trimethylphenyl)methyl]pyrazole-3-carboxamide] reads “+++ (“+++” means <3 uM)”; that for `Cc1cc(C)c(Cn2nc(C(C)(C)C)cc2C(=O)NS(=O)(=O)c2cccc3[nH]ccc23)c(C)c1` [Compound 180, 5-tert-butyl-N-(1H-indol-4-ylsulfonyl)-2-[(2,4,6-trimethylphenyl)methyl]pyrazole-3-carboxamide], “+++ (“+++” means <3 uM)”; that for `Cc1ccc(-c2cc(C(=O)NS(=O)(=O)c3ccccc3)n(Cc3c(C)cccc3C)n2)cc1` [Compound 199, N-(benzenesulfonyl)-2-[(2,6-dimethylphenyl)methyl]-5-(p-tolyl)pyrazole-3-carboxamide], “+++ (“+++” means <3 uM)”.
In the case of `CC(C)COc1cc(F)cc(-c2ccc(C(=O)NS(=O)(=O)c3cccc(N)n3)c(N3CCC[C@@H](c4ccccc4)C3)n2)c1` [Compound 684, N-[(6-amino-2-pyridyl)sulfonyl]-6-(3-fluoro-5-isobutoxy-phenyl)-2-[(3S)-3-phenyl-1-piperidyl]pyridine-3-carboxamide], the EC30 entry is reported as “+++ (“+++” means <3 uM)”.
Still for that read-out and setting: the result for `Cc1cc(C)c(CN2C(C(=O)NS(=O)(=O)c3ccc(C)c(N)c3)c3ccccc3C2(C)C)c(C)c1` (centres unmarked) [Compound 448, N-(3-amino-4-methyl-phenyl)sulfonyl-3,3-dimethyl-2-[(2,4,6-trimethylphenyl)methyl]isoindoline-1-carboxamide] reads “+++ (“+++” means <3 uM)”.
Same read-out and setting: for `Cc1cc(C)c(Oc2nc(C(C)(C)C)ccc2C(=O)NS(=O)(=O)c2cccc3c2ccn3C)c(C)c1` [Compound 146, 6-tert-butyl-N-(1-methylindol-4-yl)sulfonyl-2-(2,4,6-trimethylphenoxy)pyridine-3-carboxamide] the value was “+++ (“+++” means <3 uM)”; for `COC[C@@H]1CCCN1c1nc(-c2cc(F)cc(OCC(C)C)c2)ccc1C(=O)NS(=O)(=O)c1cccc(N)n1` [Compound 719, N-[(6-amino-2-pyridyl)sulfonyl]-6-(3-fluoro-5-isobutoxy-phenyl)-2-[(2S)-2-(methoxymethyl)pyrrolidin-1-yl]pyridine-3-carboxamide], “+++ (“+++” means <3 uM)”; for `CC(C)COc1cc(F)cc(-c2ccc(C(=O)NS(=O)(=O)c3cccc(N)n3)c(N3CCC[C@H](c4ccccc4)C3)n2)c1` [Compound 651, N-[(6-amino-2-pyridyl)sulfonyl]-6-(3-fluoro-5-isobutoxy-phenyl)-2-[(3R)-3-phenyl-1-piperidyl]pyridine-3-carboxamide], “+++ (“+++” means <3 uM)”.
